Laboratory results: patent publication US20030144347A1, “Method for treating autoimmune disease” (priority 2001, published 2003)

Assays:
Format in all cases: in vivo, human
[1] = tested on: patient with rapid mood swings and severe intense itching; experiment: Case report: patient with rapid mood swings and severe intense itching; conditions: Example 19
Method: A patient presented with rapid mood swings and a complaint of severe intense itching from clothing tags and some clothing, which began over twenty years ago. They were begun on gabapenten which was increased to 300 mg qid. […] Their itching was unchanged. They were begun on Topamax 12.5 mg at bedtime which was increased weekly by 12.5 mg until 50 mg.

[2] = tested on: patient suffering from rheumatoid arthritis; experiment: Case reports: patients suffering from rheumatoid arthritis; conditions: Example 17; before Topamax
Method: A patient suffering from rheumatoid arthritis was administered 25 mg per day of topiramate with an increase every 10 days by 25 mg until 25 mg, 3 times per day, was achieved. The patient previously took 3 or 4 tablets per day of lortab, seven 2.5 mg tablets of methotrexate once a week, 200 mg per day of minocycline and 10 mg per day of prednisone.
An adolescent patient suffering from rheumatoid arthritis began taking 15 mg per day of topiramate for one week, which was then increased by 15 mg weekly until 45 mg per day, in three divided dosages of 15 mg each, was reached. The patient previously took 3 to 5 mg of prednisone daily.
A patient suffering from rheumatoid arthritis with a positive rheumatic factor about 3 decades earlier, at which time they also experienced polyarthritis and Renaud's phenomena, was treated with prednisone 40 mg per day for six months and was then weaned off the prednisone after one year. In the ensuing years, psoriasis developed on both elbows which was worse in the winter. They were an avid golfer and experienced painful swelling and stiffness of both wrists and hands, especially the left, and back pain and stiffness. […] They were begun on Topamax 15 mg a day which was increased weekly by 15 mg until 45 mg per day was taken in divided doses.

[3] = tested on: patient suffering from multiple sclerosis; experiment: Case reports: patients suffering from multiple sclerosis treated with topiramate; conditions: Example 18; patient's own attempt
Method: A patient suffering from multiple sclerosis was administered 15 mg per day of topiramate. The dosage was increased after 15 days to 30 mg per day. At 15 mg, the patient's involuntary stretch rigid response stopped and the patient was able to get out of bed without falling backward when their feet touched the floor for the first time in nine years.
The patient previously took trazadone 100 mg at bedtime, clonazepan 1 mg three times a day, citalapram 40 mg each morning, gabapentrin 600 mg four times a day, and synthroid 25 mcg per day for two years. They had refused steroids and interferon because of side effects.
The Topamax was increased to 15 mg at bedtime and they reported “no bad bladder accidents” and that their leg and foot cramps had disappeared. […] They were discharged on Topamax 15 mg at bedtime along with previous medications. The patient was much improved medically and emotionally.
The patient returned four weeks later walking with a cane, having worked “10 to 14 hours per day and exhausted from my move with little sleep during the past month”. They reported “insatiable itching all over my body wherever my clothes touch the skin” which […] unsuccessfully tried to treat with cetirizine. […] said […] felt “dizzy, weak, Charlie horses in arches of feet and toes, unable to stand for more than 10 minutes before starting to have gait problems, problems sleeping, having trouble mentally and urine leaking”. […] working diagnoses are Axis I Bipolar disorder, not otherwise specified Axis III multiple sclerosis. […]

For `NCC1(CC(=O)O)CCCCC1` [gabapenten], the mood ([1]; 300 mg qid) was “a little calmer”, the weight gained ([1]; 300 mg qid, in two weeks) was “five” and the itching ([1]; increased to 300 mg qid) was “unchanged”.

With `COc1ccc2cc([C@H](C)C(=O)O)ccc2c1` [Naproxen] the “effect on painful swelling and stiffness” value [2] was “ineffective”.

`O=C(O)COCCN1CCN(C(c2ccccc2)c2ccc(Cl)cc2)CC1` (centres unmarked) [cetirizine] was tested, and the treatment of itching [3] was “unsuccessfully”.
